Four compounds from patent US12692221B2 (priority 2024, dated 2026) can be followed below.

The target of one experiment is T1, kappa (KOP) (h) (Homo sapiens, UniProt P41145).
T1 construct: expressed in transfected cells; host or cells: RBL cells
Description: Radioligand binding kappa (KOP) (h) (agonist radioligand), [^3H]U69593, RBL cells. The note with it: kappa (h) (KOP) (agonist radiolig.).

The next experiment concerns the target T2, Lck kinase (h) (Homo sapiens, UniProt P06239).
T2 construct: host or cells: insect cells
Nature of the experiment: Enzyme assay Lck kinase (h), LANCE. The class given is biochemical. How it is done:
(§1) Methods—Enzyme and Uptake Assays: In vitro enzyme and uptake assays were conducted by Eurofins Discovery using human recombinant enzymes expressed in various mammalian and insect cell lines. Enzymatic activity was measured using appropriate substrates or tracers under conditions optimized for each target, as detailed in Table 7. Reactions were incubated at room temperature for a defined duration and terminated according to established protocols. The measured components (either enzymatic products or remaining substrate) were quantified using fluorimetry, photometry, scintillation counting, or LANCE technology, depending on the assay. Assay-specific parameters, including substrate identity, cell line source, incubation time, and detection method, are provided in Table 7.
(§2) All measurements were performed in technical replicates to ensure reproducibility and data quality.
(§3) Results were expressed both as a percentage of control-specific activity and as percent inhibition of control-specific activity. Percent activity was calculated as (measured specific activity/control specific activity)×100, and percent inhibition as 100−[(measured specific activity/control specific activity)×100], based on values obtained in the presence of test compounds. IC50 and EC50 values, along with Hill coefficients (nH), were determined by nonlinear regression analysis of inhibition or concentration-response curves generated from mean replicate values. Hill curve fitting was performed as previously described using software developed at Cerep and validated against SigmaPlot® 4.0 for Windows® (© 1997 by SPSS Inc.).
For orientation: In TR-FRET formats the signal depends on donor and acceptor labels being close together.

Experiment [1] concerns Ca^2+ channel (L, dihydropyridine site). Nature of the experiment: Radioligand binding Ca^2+ channel (L, dihydropyridine site) (antagonist radioligand), [^3H]nitrendipine, rat cerebral cortex.
The next experiment deals with T3, 5-HT1A (h) (Homo sapiens, UniProt P08908).
T3 construct: expressed in transfected cells; host or cells: HEK-293 cells
T3 sequence (P08908 1-422): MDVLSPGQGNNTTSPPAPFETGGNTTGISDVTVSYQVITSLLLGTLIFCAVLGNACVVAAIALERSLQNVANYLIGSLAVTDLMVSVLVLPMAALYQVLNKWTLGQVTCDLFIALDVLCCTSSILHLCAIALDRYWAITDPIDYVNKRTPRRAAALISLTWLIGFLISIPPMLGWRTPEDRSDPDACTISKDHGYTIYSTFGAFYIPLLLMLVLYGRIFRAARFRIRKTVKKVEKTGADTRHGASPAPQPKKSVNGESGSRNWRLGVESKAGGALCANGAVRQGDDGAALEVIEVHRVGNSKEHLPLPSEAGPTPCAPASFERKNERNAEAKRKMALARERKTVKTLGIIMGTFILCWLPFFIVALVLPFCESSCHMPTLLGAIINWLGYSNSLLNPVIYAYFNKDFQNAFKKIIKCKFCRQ
Description: Radioligand binding 5-HT1A (h) (agonist radioligand), [^3H]8-OH-DPAT, HEK-293 cells. How it is done: (§4) Methods—Binding Assays: In vitro binding assays were performed using human recombinant receptors expressed in mammalian cell lines. Receptors were expressed in either HEK-293 or CHO cells depending on the target, and assay conditions (radioligand, concentration, nonspecific competitor, temperature, and incubation time) were optimized for each receptor. All assays were conducted in triplicate, and specific binding was quantified by scintillation counting as the detection method for each listed assay.
(§5) Specific binding was expressed as a percentage of control-specific binding, and percent inhibition was calculated using the formula in Ex. 8 above. Half-maximal inhibitory concentrations (IC50) were determined by non-linear regression analysis of the inhibition curves using the Hill equation (see Ex. 8). Inhibition constants (Ki) were calculated using the Cheng-Prusoff equation (see Ex. 8). KD values used in these calculations had been previously established for each receptor under the assay conditions (see Table 6). Data analysis was performed using software developed at Cerep and validated against SigmaPlot 4.0 for Windows.

The next experiment concerns the target T4, 5-HT transporter (h) (Homo sapiens, UniProt P31645).
T4 construct: expressed in transfected cells; host or cells: CHO cells
Description: Radioligand binding 5-HT transporter (h) (antagonist radioligand), [^3H]imipramine, CHO cells. Here is the method: as §4, §5

Another experiment addresses T5, beta1 (h) (Homo sapiens, UniProt P08588).
T5 construct: expressed in transfected cells; host or cells: HEK-293 cells
Description: Radioligand binding beta1 (h) (agonist radioligand), [^3H](−)CGP 12177, HEK-293 cells. How it is done:
as §4, §5

In the next experiment the target is T6, CB1 (h) (Homo sapiens, UniProt P21554).
T6 construct: expressed in transfected cells; host or cells: Chem-RBL cells
Nature of the experiment: Radioligand binding CB1 (h) (agonist radioligand), [^3H]CP 55940, Chem-RBL cells.

The next experiment deals with T7, CCK1 (CCKA) (h) (Homo sapiens, UniProt P32238).
T7 construct: expressed in transfected cells; host or cells: CHO cells
T7 sequence (P32238 1-428): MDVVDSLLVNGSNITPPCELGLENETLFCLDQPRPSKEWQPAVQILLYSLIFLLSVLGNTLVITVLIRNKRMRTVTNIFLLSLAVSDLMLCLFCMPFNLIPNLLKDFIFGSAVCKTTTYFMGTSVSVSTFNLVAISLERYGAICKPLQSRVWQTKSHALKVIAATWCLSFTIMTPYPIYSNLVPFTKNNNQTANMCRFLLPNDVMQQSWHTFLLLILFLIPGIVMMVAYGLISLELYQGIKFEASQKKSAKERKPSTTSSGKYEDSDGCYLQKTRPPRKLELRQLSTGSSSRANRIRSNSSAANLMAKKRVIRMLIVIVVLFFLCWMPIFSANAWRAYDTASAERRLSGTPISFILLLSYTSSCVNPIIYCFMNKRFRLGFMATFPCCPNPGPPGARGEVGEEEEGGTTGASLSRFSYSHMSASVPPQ
Description: Radioligand binding CCK1 (CCKA) (h) (agonist radioligand), [^125I]CCK-8s, CHO cells. As to conditions: CCK1 (CCKA) (h) (agonist radiolig.). How it is done: as §4, §5

The target in another experiment is T8, COX2(h) (Homo sapiens, UniProt P35354).
T8 construct: host or cells: Sf9 cells
T8 sequence (P35354 18-604): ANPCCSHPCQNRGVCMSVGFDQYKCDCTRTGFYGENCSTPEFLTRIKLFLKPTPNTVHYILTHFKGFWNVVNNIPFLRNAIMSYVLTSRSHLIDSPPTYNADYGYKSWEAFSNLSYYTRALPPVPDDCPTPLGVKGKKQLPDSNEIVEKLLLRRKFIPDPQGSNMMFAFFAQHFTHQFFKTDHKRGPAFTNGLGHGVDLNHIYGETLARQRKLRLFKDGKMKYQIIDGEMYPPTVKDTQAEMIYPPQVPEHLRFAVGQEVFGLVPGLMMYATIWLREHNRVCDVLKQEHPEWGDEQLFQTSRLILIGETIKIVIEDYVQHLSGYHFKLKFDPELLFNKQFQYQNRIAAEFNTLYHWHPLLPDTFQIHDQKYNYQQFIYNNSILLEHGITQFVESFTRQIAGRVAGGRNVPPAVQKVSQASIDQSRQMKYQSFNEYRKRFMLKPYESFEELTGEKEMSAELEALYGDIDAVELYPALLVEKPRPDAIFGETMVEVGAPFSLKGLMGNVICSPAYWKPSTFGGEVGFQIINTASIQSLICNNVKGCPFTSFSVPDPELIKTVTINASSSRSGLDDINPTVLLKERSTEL
Description: Enzyme assay COX2(h), arachidonic acid + ADHP, fluorimetry. The class given is biochemical. Here is the method: as §1, §2, §3

T2 sequence (P06239 whole entry): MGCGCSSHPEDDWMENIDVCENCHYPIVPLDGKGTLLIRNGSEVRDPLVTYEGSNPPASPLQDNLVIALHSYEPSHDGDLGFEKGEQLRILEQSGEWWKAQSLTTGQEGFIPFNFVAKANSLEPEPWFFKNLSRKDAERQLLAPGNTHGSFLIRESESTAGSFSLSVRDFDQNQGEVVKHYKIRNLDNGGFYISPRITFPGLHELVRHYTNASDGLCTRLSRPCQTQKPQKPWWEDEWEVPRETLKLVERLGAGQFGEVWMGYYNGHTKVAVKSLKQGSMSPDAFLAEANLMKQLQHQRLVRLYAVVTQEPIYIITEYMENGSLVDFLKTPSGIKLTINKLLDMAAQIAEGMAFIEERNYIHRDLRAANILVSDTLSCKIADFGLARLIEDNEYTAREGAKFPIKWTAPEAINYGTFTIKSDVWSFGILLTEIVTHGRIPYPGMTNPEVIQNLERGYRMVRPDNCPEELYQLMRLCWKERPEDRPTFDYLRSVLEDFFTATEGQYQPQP
T5 sequence (P08588 whole entry): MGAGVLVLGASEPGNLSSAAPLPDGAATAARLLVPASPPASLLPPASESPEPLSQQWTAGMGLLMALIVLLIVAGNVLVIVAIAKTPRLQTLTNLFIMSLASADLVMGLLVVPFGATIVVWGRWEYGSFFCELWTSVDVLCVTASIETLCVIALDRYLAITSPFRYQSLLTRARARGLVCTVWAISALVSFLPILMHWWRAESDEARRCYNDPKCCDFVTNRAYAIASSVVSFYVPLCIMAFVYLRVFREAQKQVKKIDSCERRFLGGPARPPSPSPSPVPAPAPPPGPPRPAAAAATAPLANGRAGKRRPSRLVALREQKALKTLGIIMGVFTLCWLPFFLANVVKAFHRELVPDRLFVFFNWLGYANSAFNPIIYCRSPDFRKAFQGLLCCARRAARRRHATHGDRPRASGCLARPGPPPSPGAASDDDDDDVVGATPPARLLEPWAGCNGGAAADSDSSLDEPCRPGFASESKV
T1 sequence (P41145 whole entry): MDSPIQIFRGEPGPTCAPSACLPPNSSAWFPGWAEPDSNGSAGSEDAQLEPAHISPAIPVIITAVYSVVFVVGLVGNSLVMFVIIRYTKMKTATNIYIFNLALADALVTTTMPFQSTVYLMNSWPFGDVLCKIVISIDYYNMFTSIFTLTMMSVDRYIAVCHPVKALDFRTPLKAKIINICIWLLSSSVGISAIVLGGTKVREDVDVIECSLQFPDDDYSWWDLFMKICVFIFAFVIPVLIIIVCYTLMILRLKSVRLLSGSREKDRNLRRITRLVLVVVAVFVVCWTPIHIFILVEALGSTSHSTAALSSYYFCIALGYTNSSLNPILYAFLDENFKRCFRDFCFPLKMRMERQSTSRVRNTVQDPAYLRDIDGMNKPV
T6 sequence (P21554 whole entry): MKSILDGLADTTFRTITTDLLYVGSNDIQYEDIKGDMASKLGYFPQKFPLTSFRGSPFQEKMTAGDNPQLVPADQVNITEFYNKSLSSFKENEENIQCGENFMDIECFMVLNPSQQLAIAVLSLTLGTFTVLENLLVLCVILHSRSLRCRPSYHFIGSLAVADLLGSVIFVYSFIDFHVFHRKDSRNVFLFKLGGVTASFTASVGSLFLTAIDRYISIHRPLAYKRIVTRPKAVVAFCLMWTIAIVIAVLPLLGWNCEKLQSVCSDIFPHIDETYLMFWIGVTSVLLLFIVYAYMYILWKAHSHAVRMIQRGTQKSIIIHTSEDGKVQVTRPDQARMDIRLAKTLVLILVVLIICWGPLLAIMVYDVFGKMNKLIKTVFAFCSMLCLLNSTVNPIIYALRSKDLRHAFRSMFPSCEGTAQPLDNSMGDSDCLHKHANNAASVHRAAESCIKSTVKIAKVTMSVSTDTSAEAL
T4 sequence (P31645 whole entry): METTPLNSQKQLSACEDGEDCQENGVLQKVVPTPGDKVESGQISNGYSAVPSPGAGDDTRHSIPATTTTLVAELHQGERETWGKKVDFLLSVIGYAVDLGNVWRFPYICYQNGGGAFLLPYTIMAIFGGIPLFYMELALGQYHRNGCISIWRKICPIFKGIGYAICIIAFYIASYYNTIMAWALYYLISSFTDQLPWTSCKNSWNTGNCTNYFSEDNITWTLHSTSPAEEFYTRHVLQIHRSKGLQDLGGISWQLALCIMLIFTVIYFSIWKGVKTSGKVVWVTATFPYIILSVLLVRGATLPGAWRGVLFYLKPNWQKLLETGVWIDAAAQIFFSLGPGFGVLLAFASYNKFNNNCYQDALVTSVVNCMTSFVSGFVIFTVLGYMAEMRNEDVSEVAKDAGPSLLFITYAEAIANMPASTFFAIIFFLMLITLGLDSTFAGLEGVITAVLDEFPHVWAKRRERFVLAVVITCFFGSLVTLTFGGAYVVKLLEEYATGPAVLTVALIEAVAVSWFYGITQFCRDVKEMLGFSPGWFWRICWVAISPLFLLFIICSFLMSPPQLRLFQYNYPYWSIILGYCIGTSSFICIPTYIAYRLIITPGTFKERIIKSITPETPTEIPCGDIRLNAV

Take `COCc1cc(CCN)c(O)cc1CC(C)C` [2CiBu-2OH-5MM, 2-(2-aminoethyl)-5-isobutyl-4-(methoxymethyl)phenol]: the “Mean Percent Inhibition of Control Specific Binding” value (from here on “Mean Percent Inhibition”) at kappa (KOP) (h) stood at 28.2%; at Lck kinase (h), 12.8%; in experiment [1], 8.4%; at 5-HT1A (h), 34.8%; at 5-HT transporter (h) it was 15.0%; at beta1 (h) it was 84.5%. Besides, the “Mean Percent Inhibition” value was −1.9% on CB1 (h), −0.1% on CCK1 (CCKA) (h) and 10.2% at COX2(h).
For `COCCc1cc(CCN)c(OC)cc1Br` [Compound 2CB-5ME, reference compound], the “Mean Percent Inhibition” value at kappa (KOP) (h) came to 11.2%; at Lck kinase (h), 23.3%; in [1] it was 0.2%; on 5-HT1A (h) it was 98.2%; on 5-HT transporter (h), 8.6%; at beta1 (h) it was 26.2%. Further, the “Mean Percent Inhibition” value on CB1 (h) is recorded as 4.0%; on CCK1 (CCKA) (h), 3.3%; at COX2(h), −10.4%.
Take `COCc1cc(CCN)c(OC)cc1CC(C)C` [Compound 2CiBu-5MM, 2-[4-isobutyl-2-methoxy-5-(methoxymethyl)phenyl]ethanamine]: the “Mean Percent Inhibition” value on kappa (KOP) (h) was 29.8%; at Lck kinase (h) it was −6.6%; in experiment [1], −4.6%; at 5-HT1A (h) it was 76.5%; at 5-HT transporter (h), 4.9%; on beta1 (h) it was 36.0%. In addition, the “Mean Percent Inhibition” value on CB1 (h) was −5.6%; on CCK1 (CCKA) (h) it was 12.2%; on COX2(h), −7.0%.
For `COCc1cc(CCN)c(OC)cc1Br` [Compound 2CB-5MM, 2-(4-bromo-2-methoxy-5-(methoxymethyl)phenyl)ethan-1-amine], the “Mean Percent Inhibition” value on kappa (KOP) (h) is 11.4%; on Lck kinase (h), 5.9%; in experiment [1] it was 2.7%; on 5-HT1A (h) it was 95.1%; at 5-HT transporter (h), −1.3%; on beta1 (h), 19%. Besides, the “Mean Percent Inhibition” value is −10.4% on CB1 (h), −11.5% at CCK1 (CCKA) (h) and −8.0% on COX2(h).
